Assays:
[1] = target: JAK1 (recombinant purified GST-tagged catalytic domain) (Homo sapiens (Human), UniProt P23458); experiment: Jak Biochemical HTRF Assay (JAK1); details: [ATP] 31.8 μM
Method in brief: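 Phosphorylation of a common biotinylated peptide by each catalytic domain is measured by HTRF. The ATP-started reaction runs 120 min at room temperature before EDTA quench and detection.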

[2] = target: JAK2 (recombinant purified GST-tagged catalytic domain) (Homo sapiens (Human), UniProt O60674); experiment: Jak Biochemical HTRF Assay (JAK2); details: [ATP] 8.5 μM
Chain of JAK2 (recombinant purified GST-tagged catalytic domain) (O60674 849-1124): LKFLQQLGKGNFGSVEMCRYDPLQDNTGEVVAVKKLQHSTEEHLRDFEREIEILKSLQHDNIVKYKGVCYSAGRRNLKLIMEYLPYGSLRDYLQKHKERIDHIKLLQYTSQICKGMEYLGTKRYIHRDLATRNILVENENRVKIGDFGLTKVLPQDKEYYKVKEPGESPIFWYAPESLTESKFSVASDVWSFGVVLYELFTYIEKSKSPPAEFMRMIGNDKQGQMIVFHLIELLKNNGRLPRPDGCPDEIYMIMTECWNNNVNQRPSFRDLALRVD

Chain of JAK1 (recombinant purified GST-tagged catalytic domain) (P23458 875-1153): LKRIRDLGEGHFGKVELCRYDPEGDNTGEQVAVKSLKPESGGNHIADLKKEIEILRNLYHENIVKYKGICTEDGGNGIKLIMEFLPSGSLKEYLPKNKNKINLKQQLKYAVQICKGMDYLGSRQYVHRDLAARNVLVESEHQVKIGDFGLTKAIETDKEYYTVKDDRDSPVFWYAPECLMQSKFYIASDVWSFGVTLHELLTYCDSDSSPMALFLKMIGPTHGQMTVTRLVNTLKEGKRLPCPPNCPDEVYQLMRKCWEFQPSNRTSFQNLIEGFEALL

Row | Structure (SMILES) | IC50 [1] [nM] | IC50 [2] [nM]
1 | N#CC[C@]1(n2nc(Nc3ccc(OC(F)(F)F)cc3)c3c(=O)[nH]ccc32)CC[C@@H](NC2CCCCC2)CC1 [Example 18-20, Cis 2-(4-(cyclohexylamino)-1-(4-oxo-3-((4-(trifluoromethoxy)phenyl)amino)-4,5-dihydro-1H-pyrazolo[4,3-c]pyridin-1-yl)cyclohexyl)acetonitrile] | 52.2 | > 1500
2 | N#CCC1(n2nc(Nc3ccc4c(c3)COC4=O)c3c(=O)[nH]ccc32)CCCC1 [Example 5-125, 2-(1-(4-oxo-3-((1-oxo-1,3-dihydroisobenzofuran-5-yl)amino)-4,5-dihydro-1H-pyrazolo[4,3-c]pyridin-1-yl)cyclopentyl)acetonitrile] | 0.27 | 2.71
3 | N#CC[C@@]1(n2nc(Nc3ccc4c(c3)CN(C3CCCC3)C4=O)c3c(=O)[nH]ccc32)CCCOC1 [Example 5-197, [(3S)-3-{3-[(2-cyclopentyl-1-oxo-2,3-dihydro-1H-isoindol-5-yl)amino]-4-oxo-4,5-dihydro-1H-pyrazolo[4,3-c]pyridin-1-yl}tetrahydro-2H-pyran-3-yl]acetonitrile] | 0.13 | 1.13
4 | CC(C)(C)OC(=O)N1CC[C@](CC#N)(n2nc(Nc3ccc4c(c3)CN(CC(F)(F)F)S4(=O)=O)c3c(=O)[nH]ccc32)[C@H](F)C1 [Example 5-24, tert-butyl (3R,4R)-4-(cyanomethyl)-4-(3-{[1,1-dioxido-2-(2,2,2-trifluoroethyl)-2,3-dihydro-1,2-benzisothiazol-5-yl]amino}-4-oxo-4,5-dihydro-1H-pyrazolo[4,3-c]pyridin-1-yl)-3-fluoropiperidine-1-carboxylate] | 0.2 | 0.25
5 | N#CC[C@]1(n2nc(Nc3ccc([C@@]4(C(F)(F)F)CCCCN4)cc3)c3c(=O)[nH]ccc32)CCOC[C@H]1F (single isomer, unassigned) [Example 5-264, 2-((3S,4S or 3R,4R)-3-fluoro-4-(4-oxo-3-((4-((R or S)-2-(trifluoromethyl)piperidin-2-yl)phenyl)amino)-4,5-dihydro-1H-pyrazolo[4,3-c]pyridin-1-yl)tetrahydro-2H-pyran-4-yl)acetonitrile] | 0.51 | 0.79
6 | Cc1cc(Nc2nn(C3(CC#N)CCN(C(=O)OC(C)(C)C)CC3)c3cc[nH]c(=O)c23)ccc1C(=O)N1CC2CCC(C1)O2 [Example 21-12, tert-butyl-4-(3-((4-(8-oxa-3-azabicyclo[3.2.1]octane-3-carbonyl)-3-methylphenyl)amino)-4-oxo-4,5-dihydro-1H-pyrazolo[4,3-c]pyridin-1-yl)-4-(cyanomethyl)piperidine-1-carboxylate] | 0.26 | 0.18
7 | CN(C)S(=O)(=O)c1ccc(Nc2nn(C3(CC#N)CCN(C(=O)CCc4ccccc4)CC3)c3cc[nH]c(=O)c23)cc1 [Example 9-17, 4-({1-[4-(cyanomethyl)-1-(3-phenylpropanoyl)piperidin-4-yl]-4-oxo-4,5-dihydro-1H-pyrazolo[4,3-c]pyridin-3-yl}amino)-N,N-dimethylbenzenesulfonamide] | 0.15 | 0.7
8 | CC(C)(C)OC(=O)N1CC(CC#N)(n2nc(Nc3ccnc(F)c3)c3c(=O)[nH]ccc32)C1 [Example 5-46, tert-butyl 3-(cyanomethyl)-3-{3-[(2-fluoropyridin-4-yl)amino]-4-oxo-4,5-dihydro-1H-pyrazolo[4,3-c]pyridin-1-yl}azetidine-1-carboxylate] | 3.53 | 43.5
9 | CCN(C(C)(C)C)S(=O)(=O)c1ccc(Nc2nn(C3(CC#N)CCCC3)c3cc[nH]c(=O)c23)cc1 [Example 5-135, N-(tert-butyl)-4-((1-(1-(cyanomethyl)cyclopentyl)-4-oxo-4,5-dihydro-1H-pyrazolo[4,3-c]pyridin-3-yl)amino)-N-ethylbenzene sulfonamide] | 0.98 | 1.53
10 | CC(C)N(C)S(=O)(=O)c1ccc(Nc2nn([C@]3(CC#N)CC[C@@H](C(=O)OC(C)(C)C)OC3)c3cc[nH]c(=O)c23)cc1 [Example 5-91, (2S,5S)-tert-butyl 5-(cyanomethyl)-5-(3-((4-(N-isopropyl-N-methylsulfamoyl)phenyl)amino)-4-oxo-4,5-dihydro-1H-pyrazolo[4,3-c]pyridin-1-yl)tetrahydro-2H-pyran-2-carboxylate] | 0.14 | 0.23
11 | N#CC[C@]1(n2nc(Nc3ccc(Cl)cc3)c3c(=O)[nH]ccc32)CC[C@H](Nc2ccccc2)CC1 [Example 18-14, Trans 2-(1-(3-((4-chlorophenyl)amino)-4-oxo-4,5-dihydro-1H-pyrazolo[4,3-c]pyridin-1-yl)-4-(phenylamino)cyclohexyl)acetonitrile] | 1.71 | 32.4
12 | N#CCC1(n2nc(Nc3ccc([C@@H](O)C(F)(F)F)cc3)c3c(=O)[nH]ccc32)CCN(c2cc(C(F)(F)F)ccn2)CC1 (single isomer, unassigned) [Example 16-2, (R or S)-2-(4-(4-oxo-3-(4-(2,2,2-trifluoro-1-hydroxyethyl)phenylamino)-4,5-dihydropyrazolo[4,3-c]pyridin-1-yl)-1-(4-(trifluoromethyl)pyridin-2-yl)piperidin-4-yl)acetonitrile] | 1.14 | 4.81
13 | CN(C)S(=O)(=O)c1ccc(Nc2nn(C3(CC#N)CCN(Cc4ccc(C(F)(F)F)cc4)CC3)c3cc[nH]c(=O)c23)cc1 [Example 8-3, 4-[(1-{4-(cyanomethyl)-1-[4-(trifluoromethyl)benzyl]piperidin-4-yl}-4-oxo-4,5-dihydro-1H-pyrazolo[4,3-c]pyridin-3-yl)amino]-N,N-dimethylbenzenesulfonamide] | 2.32 | 8.62
14 | CNc1nn(C2(CC#N)CCN(C(=O)OC(C)(C)C)CC2)c2cc[nH]c(=O)c12 [Example 2-5, tert-butyl 4-(cyanomethyl)-4-[3-(methylamino)-4-oxo-4,5-dihydro-1H-pyrazolo [4,3-c]pyridin-1-yl] piperidine-1-carboxylate] | 20.3 | 490

The next molecules have a lower IC50 [1] than those just listed; values first:

Row | IC50 [1] [nM] | IC50 [2] [nM] | Structure (SMILES)
15 | 0.05 | 0.04 | N#CC[C@@]1(n2nc(Nc3ccc([C@@]4(C(F)(F)F)CCCCN4)cc3)c3c(=O)[nH]ccc32)CCOC[C@@H]1F (single isomer, unassigned) [Example 5-266, 2-((3R,4R or 3S,4S)-3-fluoro-4-(4-oxo-3-((4-((R or S)-2-(trifluoromethyl)piperidin-2-yl)phenyl)amino)-4,5-dihydro-1H-pyrazolo[4,3-c]pyridin-1-yl)tetrahydro-2H-pyran-4-yl)acetonitrile]
16 | 0.1 | 0.14 | COC(=O)N1CCC(CC#N)(n2nc(Nc3ccc(S(=O)(=O)C(C)(C)C)cc3)c3c(=O)[nH]ccc32)CC1 [Example 5-150, methyl 4-(3-((4-(tert-butylsulfonyl)phenyl)amino)-4-oxo-4,5-dihydro-1H-pyrazolo [4,3-c]pyridin-1-yl)-4-(cyanomethyl)piperidine-1-carboxylate]
17 | 0.09 | 1.9 | N#CCC1(n2nc(Nc3ccc(F)cc3)c3c(=O)[nH]ccc32)CCN(C(=O)C2CC2)CC1 [Example 7, [1-(cyclopropylcarbonyl)-4-{3-[(4-fluorophenyl)amino]-4-oxo-4,5-dihydro-1H-pyrazolo[4,3-c]pyridin-1-yl}piperidin-4-yl]acetonitrile]
18 | 0.07 | 0.77 | Cc1ccc2cc(Nc3nn([C@]4(CC#N)CC[C@@H](C(=O)OC(C)(C)C)OC4)c4cc[nH]c(=O)c34)ccc2n1 [Example 5-217, (2S,5S)-tert-butyl 5-(cyanomethyl)-5-(3-((2-methylquinolin-6-yl)amino)-4-oxo-4,5-dihydro-1H-pyrazolo[4,3-c]pyridin-1-yl)tetrahydro-2H-pyran-2-carboxylate]
19 | 0.09 | 0.34 | CC(C)(C)OC(=O)[C@@H]1CC[C@@](CC#N)(n2nc(Nc3ccc(S(C)(=O)=O)cc3)c3c(=O)[nH]ccc32)CO1 (racemic) [Example 5-36, (2S,5S and 2R,5R)-tert-butyl 5-(cyanomethyl)-5-(3-((4-(methylsulfonyl)phenyl)amino)-4-oxo-4,5-dihydro-1H-pyrazolo[4,3-c]pyridin-1-yl)tetrahydro-2H-pyran-2-carboxylate]
20 | 0.12 | 0.51 | CC(C)(C)OC(=O)[C@@H]1CC[C@@](CC#N)(n2nc(Nc3ccc(C(O)C(F)(F)F)cc3)c3c(=O)[nH]ccc32)CO1 (single isomer, unassigned) [Example 5-168, (2S,5S)-tert-butyl 5-(cyanomethyl)-5-(4-oxo-3-((4-((S or R)-2,2,2-trifluoro-1-hydroxyethyl)phenyl)amino)-4,5-dihydro-1H-pyrazolo [4,3-c]pyridin-1-yl)tetrahydro-2H-pyran-2-carboxylate]
21 | 0.05 | 0.04 | N#CC[C@@]1(n2nc(Nc3ccc([C@]4(C(F)(F)F)CCCCN4)cc3)c3c(=O)[nH]ccc32)CCOC[C@@H]1F (single isomer, unassigned) [Example 5-265, 2-((3R,4R or 3S,4S)-3-fluoro-4-(4-oxo-3-((4-((S or R)-2-(trifluoromethyl)piperidin-2-yl)phenyl)amino)-4,5-dihydro-1H-pyrazolo[4,3-c]pyridin-1-yl)tetrahydro-2H-pyran-4-yl)acetonitrile]
22 | 0.1 | 0.41 | CC(C)(C)OC(=O)[C@@H]1CC[C@@](CC#N)(n2nc(Nc3ccc(C(O)C(F)(F)F)cc3)c3c(=O)[nH]ccc32)CO1 (single isomer, unassigned) [Example 5-169, (2S,5S)-tert-butyl 5-(cyanomethyl)-5-(4-oxo-3-((4-((S or R)-2,2,2-trifluoro-1-hydroxyethyl)phenyl)amino)-4,5-dihydro-1H-pyrazolo [4,3-c]pyridin-1-yl)tetrahydro-2H-pyran-2-carboxylate]

From US9957264B2 (Merck Sharp & Dohme Corp., priority 2013, dated 2018)
